{"source": "patent US9605050B2", "about": "“Glycoprotein synthesis and remodeling by enzymatic transglycosylation” (UNIVERSITY OF MARYLAND, BALTIMORE, priority 2006, dated 2017)", "molecules": {"B1": {"name": "glycoprotein 44: homogeneous ribonuclease B glycoform carrying nonnatural N-glycan Gal2Man3GlcNAc2 at Asn-34 (protein, UniProt P61823 27-150, looked up)", "Ribonuclease pancreatic": "KETAAAKFERQHMDSSTSAASSSNYCNQMMKSRNLTKDRCKPVNTFVHESLADVQAVCSQKNVACKNGQTNCYQSYSTMSITDCRETGSSKYPNCAYKTTQANKHIIVACEGNPYVPVHFDASV", "modifications": "Gal2Man3GlcNAc2 N-glycan at Asn-34"}}, "key": {"[1]": {"target": "T1, Endo-A (Glutamicibacter protophormiae, UniProt Q9ZB22)", "T1 sequence (Q9ZB22 entry or part of it)": "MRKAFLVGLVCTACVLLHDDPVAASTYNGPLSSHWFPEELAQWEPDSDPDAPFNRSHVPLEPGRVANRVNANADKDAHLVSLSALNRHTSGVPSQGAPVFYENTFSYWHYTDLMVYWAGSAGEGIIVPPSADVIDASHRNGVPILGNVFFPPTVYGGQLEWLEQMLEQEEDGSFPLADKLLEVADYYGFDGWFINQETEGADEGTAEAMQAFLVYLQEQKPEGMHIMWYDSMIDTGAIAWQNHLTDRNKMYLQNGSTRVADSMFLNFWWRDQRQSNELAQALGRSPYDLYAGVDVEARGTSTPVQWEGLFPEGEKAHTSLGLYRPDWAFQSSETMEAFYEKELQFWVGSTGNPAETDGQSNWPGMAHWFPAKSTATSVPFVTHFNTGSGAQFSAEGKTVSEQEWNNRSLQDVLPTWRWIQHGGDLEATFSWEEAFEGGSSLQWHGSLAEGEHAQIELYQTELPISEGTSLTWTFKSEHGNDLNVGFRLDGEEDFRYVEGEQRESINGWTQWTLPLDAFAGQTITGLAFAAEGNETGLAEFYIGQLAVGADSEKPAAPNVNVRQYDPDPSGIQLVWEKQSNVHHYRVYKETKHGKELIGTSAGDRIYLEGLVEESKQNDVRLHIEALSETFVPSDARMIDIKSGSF", "assay": "Endo-A catalyzed transglycosylation of synthetic oligosaccharide oxazolines (donor substrates) with GlcNAc-peptide/protein acceptors", "type": "biochemical, Arthrobacter protophormiae", "conditions": "for donor substrate activity in Endo-A catalyzed transglycosylation: GlcNAc-tripeptide acceptor (27 or 40), phosphate buffer pH 6.5; for relative transglycosylation rates (order): acceptor 27, same conditions; for donor substrate activity in Endo-A transglycosylation to large acceptor: acceptor GlcNAc-C34, donor/acceptor 5:1", "from_the_text": "To test the transglycosylation potential of the synthetic oligosaccharide oxazolines, a small GlcNAc-tripeptide acceptor, Asn(GlcNAc)-Ile-Thr was synthesized, which represents the minimum consensus sequence for the N24 and N38 N-glycosylation sites in erythropoietin, an important therapeutic glycoprotein for the treatment of anemia.[25] […] As expected, the Endo-A catalyzed reaction of oxazolines 1 and 2 with the GlcNAc-peptide 27 (donoracceptor 3:1) proceeded smoothly in a phosphate buffer (pH 6.5) to give the corresponding N-glycopeptides 28 and 29 in 63 and 86% yields, respectively. […] Thus incubation of 3 and acceptor 27 (ratio 3:1) in the presence of Endo-A gave glycopeptide 30 carrying the N-linked tetrasaccharide moiety in 72% isolated yield. […] The Endo-A catalyzed reaction of 4 with acceptor 27 (3:1) afforded the modified glycopeptide 31 in 55% isolated yield.\n(§1) In all cases, the newly formed glycosidic bond in the resulting glycopeptides 28, 29, 30, and 31 was determined by 2D NMR analysis (data not shown) to be a β-1,4-glycosidic linkage, confirming the previous conclusion that the Endo-A catalyzed transglycosylation using oligosaccharide oxazoline as the donor substrates proceeded in a regio- and stereospecific manner.[11]\nNext, the structurally related disaccharide oxazolines 5-7 were tested. […] Despite this, the enzyme could tolerate selective modification on the mannose moiety, for example, attachment of additional sugar moieties at the 3′,6′-positions and even an aromatic group at the 6′-position.\n(§2) This led to the synthesis of the large glycopeptide 32 that contains the core N-linked tetrasaccharide (75% yield) and glycopeptide 33 which carries a modified trisaccharide (68%) when an excess oxazoline donor (donor/acceptor 5:1) was used. […] Finally, we also tested whether Endo-A could hydrolyze the resulting “ground-state” glycopeptides 28-33 carrying the N-linked core tri-, tetra-, and pentasaccharide, respectively.\nA mixture of the respective oligosaccharide oxazoline (10-30 μmol) and the GlcNAc-tripeptide 27 (3 molar equivalents of the donor) or the GlcNAc-C34[7] (5 molar equivalents of the donor) in a phosphate buffer (50 mM, pH 6.5, 0.5-1 mL) was incubated at 25° C. with the enzyme Endo-A (100 mU). The oxazoline derivative was added in portions during the reaction. The reaction was monitored by analytical HPLC by taking aliquots at intervals. It was observed that the transglycosylation reaction with the disaccharide oxazoline derivatives 1 and 4 proceeded slowly and took more than 48 h for reaching the plateau, while the transglycosylation with the tetrasaccharide oxazoline 2 proceeded quickly and would be complete within 2 h. The reaction was stopped by heating in a boiling water bath for 3 min when the peak of the transglycosylation product reached the maximum. The product was purified by preparative HPLC on a Waters preparative column (Symmetry 300, 19×300 mm) to afford the respective glycopeptide, which was characterized by NMR and ESI-MS).\nTo examine whether the endoglycosidase Endo-A is able to recognize the synthetic nonnatural sugar oxazoline for trans-glycosylation, a model reaction was carried out with a small GlcNAc-peptide, Ac-Asn(GlcNAc)-Ile-Thr (40),[9] as the acceptor, as shown in FIG. 11. The enzymatic reaction was monitored by reverse-phase HPLC. It was observed that the reaction between 39 and 40 (molar ratio 2:1) occurred quickly in the presence of Endo-A, while no ligation would occur in the absence of the enzyme. The glycosylation of the acceptor 40 with oxazoline 39 under the catalysis of Endo-A was essentially complete within 30 min to form the glycopeptide 41, which was isolated in 98% yield. The identity of the glycopeptide was characterized by ESI-MS and NMR.\nA mixture of the hexasaccharide oxazoline 39 (0.69 mg, 0.68 μmol) and the GlcNAc-tripeptide 40 (0.2 mg, 0.34 μmol) in a phosphate buffer (50 mM, pH 6.5, 100 μl) was incubated at 23° C. with the enzyme Endo-A (200 mU). […]"}, "[2]": {"system": "Bacillus chitinase", "conditions": "cited from earlier work"}, "[3]": {"target": "T1, Endo-A", "assay": "Endo-A catalyzed transglycosylation of synthetic oligosaccharide oxazolines (donor substrates) with GlcNAc-peptide/protein acceptors", "type": "biochemical, Arthrobacter protophormiae", "conditions": "acceptor GlcNAc-RB (43), donor/acceptor 2:1, pH 6.5, 23° C., Endo-A 200 mU"}, "[4]": {"target": "T1, Endo-A", "assay": "Endo-A catalyzed hydrolysis of oxazolines and of the resulting glycopeptides/glycoprotein", "type": "biochemical, Arthrobacter protophormiae", "conditions": "glycopeptides: in the presence of large amount of Endo-A", "description": "as §1, §2\nThis is understandable because glycoprotein 44 carries a nonnatural N-glycan and Endo-A is known to hydrolyze only high-mannose type natural N-glycans. […] All these factors contribute to the formation of the trans-glycosylation product. Similarly, Endo-A catalyzed reaction of GlcNAc-RB with the tetrasaccharide oxazoline 2 [7] gave the glycoprotein 45 carrying the core N-linked pentasaccharide Man3GlcNAc2 in 82% yield (Scheme 3). Again, the observed MS (14574.5 Da, from the deconvolution of the ESI-MS data) of the isolated product matches well with the calculated MS (14575.6 Da) of glycoprotein 45. […]"}}}
{"molecule": "CC1=N[C@H]2[C@@H](O1)O[C@H](CO)[C@@H](O[C@@H]1O[C@H](CO)[C@@H](O)[C@H](O)[C@@H]1O)[C@@H]2O", "note": "[oxazoline 1]", "values": [{"measurement": "donor substrate activity in Endo-A catalyzed transglycosylation", "setting": "[1]", "value": "good donor substrates"}, {"measurement": "relative transglycosylation rates (order)", "setting": "[1]", "value": "tetrasaccharide oxazoline 2>trisaccharide oxazoline 3>disaccharide oxazoline 1>Bn-substituted disaccharide oxazoline 4"}]}
{"molecule": "CC1=N[C@H]2[C@@H](O1)O[C@H](CO)[C@@H](O[C@@H]1O[C@H](CO[C@H]3O[C@H](CO)[C@@H](O)[C@H](O)[C@@H]3O)[C@@H](O)[C@H](O)[C@@H]1O)[C@@H]2O", "note": "[oxazoline 3]", "values": [{"measurement": "donor substrate activity in Endo-A catalyzed transglycosylation", "setting": "[1]", "value": "efficient donor substrate"}, {"measurement": "relative transglycosylation rates (order)", "setting": "[1]", "value": "tetrasaccharide oxazoline 2>trisaccharide oxazoline 3>disaccharide oxazoline 1>Bn-substituted disaccharide oxazoline 4"}, {"measurement": "donor substrate activity in Endo-A transglycosylation to large acceptor", "setting": "[1]", "value": "proceeded successfully"}]}
{"molecule": "CC1=N[C@H]2[C@@H](O1)O[C@H](CO)[C@@H](O[C@@H]1O[C@H](COCc3ccccc3)[C@@H](O)[C@H](O)[C@@H]1O)[C@@H]2O", "note": "[oxazoline 4]", "values": [{"measurement": "donor substrate activity in Endo-A catalyzed transglycosylation", "setting": "[1]", "value": "could still be recognized by Endo-A as a donor substrate"}, {"measurement": "relative transglycosylation rates (order)", "setting": "[1]", "value": "tetrasaccharide oxazoline 2>trisaccharide oxazoline 3>disaccharide oxazoline 1>Bn-substituted disaccharide oxazoline 4"}, {"measurement": "donor substrate activity in Endo-A transglycosylation to large acceptor", "setting": "[1]", "value": "proceeded successfully"}]}
{"molecule": "CC1=NC2C(O1)OC(CO)C(OC1OC(CO)C(O)C(O)C1O)C2O", "note": "(stereo not drawn) [oxazoline 5]", "values": [{"measurement": "donor substrate activity in Endo-A catalyzed transglycosylation", "setting": "[1]; listed as 5", "value": "inactive"}]}
{"molecule": "CC(=O)N[C@H]1[C@H](O[C@H]2[C@H](O)[C@H]3N=C(C)O[C@H]3O[C@@H]2CO)O[C@H](CO)[C@@H](O)[C@@H]1O", "note": "[oxazoline 6, chitobiose oxazoline, reference compound]", "values": [{"measurement": "donor substrate activity in Endo-A catalyzed transglycosylation", "setting": "[1]", "value": "could not be recognized by Endo-A"}, {"measurement": "substrate of Bacillus chitinase", "setting": "[2]", "value": "substrates"}]}
{"molecule": "CC1=NC2C(O1)OC(CO)C(OC1OC(CO)C(O)C(O)C1O)C2O", "note": "(stereo not drawn) [oxazoline 7, LacNAc-oxazoline, reference compound]", "values": [{"measurement": "donor substrate activity in Endo-A catalyzed transglycosylation", "setting": "[1]; listed as 7", "value": "could not be recognized by Endo-A"}, {"measurement": "substrate of Bacillus chitinase", "setting": "[2]", "value": "substrates"}]}
{"molecule": "O-β-D-Galactopyranosyl-(1→4)-α-D-mannopyranosyl-(1→3)-[β-D-galactopyranosyl-(1→4)-α-D-mannopyranosyl-(1→6)]-β-D-mannopyranosyl-(1β4)-(1,2-dideoxy-α-D-glucopyrano)-[2,1-d]-2-oxazoline [oxazoline 39]", "values": [{"measurement": "donor substrate activity in Endo-A catalyzed transglycosylation", "setting": "[1]", "value": "excellent substrate"}, {"measurement": "time to essentially complete glycosylation of acceptor 40", "setting": "[1]; acceptor Ac-Asn(GlcNAc)-Ile-Thr (40), donor/acceptor 2:1, 23° C., Endo-A 200 mU", "value": "≤ 30", "unit": "min"}, {"measurement": "transglycosylation rate compared with enzymatic hydrolysis of the oxazoline", "setting": "[1]; in the presence of a GlcNAc-peptide or protein acceptor", "value": "much faster"}, {"measurement": "time to complete conversion of GlcNAc-RB", "setting": "[3]", "value": "≤ 2", "unit": "h"}]}
{"molecule": "B1", "values": [{"measurement": "hydrolysis of the ground-state glycopeptide/glycoprotein by Endo-A", "setting": "[4]", "value": "resistant to Endo-A catalyzed hydrolysis"}]}
